1 substance from patent publication US20130251632A1, “APOPTOSIS PET IMAGING AGENTS” (GE HEALTHCARE LIMITED, priority 2010, published 2013) can be followed below.

A short description of this test: Affinity for phosphatidylethanolamine, Biacore 3000 with L1 chip and captured liposomes. It is filed as binding. Conditions: POPE/POPC liposomes (20% PE). An excerpt: A Biacore 3000 (GE Healthcare, Uppsala) was equipped with an L1 chip. Liposomes made of POPE/POPC (20% PE) were applied for the affinity study using the capture technique recommended by the manufacturer. Each run consisted of activation of the chip surface, immobilization of liposomes, binding of peptide and wash off of both liposomes and peptide (regeneration). Similar applications can be found in Frostell-Karlsson et al [Pharm. Sciences, V.94 (1), (2005)]. Thorough washing of needle, tubing and liquid handling system with running buffer was performed after each cycle.
BIACORE software: The BIACORE control software including all method instructions was applied. A method with commands was also written in the BIACORE Method Definition Language (MDL) to have full control over pre-programmed instructions. BIACORE evaluation software was applied for analysing the sensorgrams.

duramycin: the “ka” value is roughly 20000 M⁻¹ s⁻¹.
